# Results: patent publication US20110136162A1, “Compositions and Methods for Functionalized Patterning of Tissue Engineering Substrates Including Bioprinting Cell-Laden Constructs for Multicompartment Tissue Chambers” (Drexel University, priority 2009, published 2011)
# Test system: Human hepatocytes (HepG2) and human melanoma cells (M10)
# Test: Micronuclei in binucleated cells after γ-radiation, cells treated with amifostine
# Assay type: cell-based
# Conditions: binucleated cells after 60 hours
# Description: Human hepatocytes (HepG2) and human melanoma cells (M10) were cultured in α-Minimum Essential Medium (Gibco) at 37° C. in 5% CO2. Cells were mixed with BME (i.e., Basement Membrane Matrix Phenol Red-free (BD Biosciences Matrigel)) chilled to 4° C. and printed onto a glass microfluidic chip having a PDMS substrate (see FIGS. 13 and 14) using a temperature-controlled BME printing apparatus 0-5° C. (see, for example, FIGS. 9 and 10).
# After the 4 hour treatment with amifostine, the cells were exposed to 2 Grays of γ-radiation from a cesium source. […] Then, the cells were incubated and allowed to divide for 60 hours and examined for evidence of radiation damage.
# Binucleated cells were examined for the presence of micronuclei as evidence of radiation damage.
smiles,measurement,setting,value
NCCCNCCSP(=O)(O)O [amifostine],radiation-treated cells found to have micronuclei,"microfluidic chip, 1 mM amifostine perfusion 4 hours before and 90 minutes after 2 Grays γ-radiation",about 3%
same,radiation-treated cells found to have micronuclei,"tissue culture plate, 1 mM amifostine 4 hours before and 90 minutes after 2 Grays γ-radiation",about 4%
